≈ marks a conversion by molar mass, not a printed value. Where a SMILES comes first, the peptide text is derived from it. Bridges are numbered along the chain shown (N, C = ends). Roman numbers before positions name the chains, in order. [ ]: non-standard residue; d: D form. The star is where a group is joined. Heptanoyl(6-Me) = CC(C)CCCCC(=O)*; Tle = CC(C)(C)[C@H](N)C(=O)O; dDab = NCC[C@@H](N)C(=O)O; hSer = N[C@@H](CCO)C(=O)O; Nle = CCCC[C@H](N)C(=O)O; Orn = NCCC[C@H](N)C(=O)O; Dab = NCC[C@H](N)C(=O)O; Dap = NC[C@H](N)C(=O)O
What was measured:
Format in all cases: cell-based
[1] = system: Klebsiella pneumoniae 968733; conditions: 968733
Summary of the method: (§1)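 MIC in μg/mL, read as no visible growth after 18-20 hours at 35° C. Peptides were serially diluted two-fold in MH-II broth plus P-80 (0.002% final, v/v) and inoculated at about 10^6 CFU/mL following the CLSI broth microdilution standard.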

[2] = system: Enterobacter cloacae 848840; conditions: 848840
Summary of the method: as §1

[3] = system: Escherichia coli 926415; conditions: 926415
Summary of the method: as §1

[4] = system: Klebsiella pneumoniae SSI #3010; conditions: SSI #3010
Summary of the method: as §1

[5] = system: Escherichia coli ATCC 25922; conditions: ATCC 25922
Summary of the method: as §1

[6] = system: Acinetobacter baumannii DSM 30008; conditions: DSM 30008
Summary of the method: as §1

[7] = system: Pseudomonas aeruginosa ATCC 27853; conditions: ATCC 27853
Summary of the method: as §1

[8] = system: Acinetobacter baumannii 872842; conditions: 872842
Summary of the method: as §1

[9] = system: human red blood cells (hRBC); assay: Hemolysis; conditions: red cells of human, 1 h, 200
Summary of the method: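 Percent hemolysis relative to 2% Triton X-100 (100%) and PBS/10% water (0%), from blank-corrected OD540 of diluted supernatants. Peptides tested at 200 μg/mL against 20% (v/v) washed human erythrocytes, 1 h, 37° C, shaking at 300 rpm.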

Row | Compound | MIC [1] [µg/mL] | MIC [2] [µg/mL] | MIC [3] [µg/mL] | MIC [4] [µg/mL] | MIC [5] [µg/mL] | MIC [6] [µg/mL] | MIC [7] [µg/mL] | MIC [8] [µg/mL] | Hemolysis at 200 μg/mL [9] [%]
1 | CCCC[C@H](NC(C)=O)C(=O)N[C@H]1CCCNC(=O)[C@@H]([C@H](C)O)NC(=O)[C@H](C(C)(C)C)NC(=O)[C@H](CO)NC(=O)[C@H](Cc2c[nH]c3ccccc23)NC(=O)[C@H](CCO)NC(=O)[C@@H](CCN)NC(=O)[C@H](CCC(=O)N[C@@H](CCN)C(=O)N[C@H](C(=O)N[C@@H](CN)C(=O)N[C@H]2CCNC(=O)[C@H]([C@@H](C)O)NC(=O)[C@H](CCN)NC(=O)[C@H](CCN)NC(=O)[C@H](CC(C)C)NC(=O)[C@@H](CC(C)C)NC(=O)[C@H](CCN)NC2=O)[C@@H](C)O)NC(=O)[C@H](CN)NC(=O)[C@H](Cc2ccc(O)cc2)NC1=O [Ex. 34] (I: Ac-[Nle][Orn]Y[Dap]E[dDab][hSer]WS[Tle][dT] / II: [Dab]T[Dap][Dab][Dab][dL]L[Dab][Dab]T; lactam I:2-I:C, II:4-II:C; amide I:5-II:N) | 0.125 (≈ 0.0536 µM) | 0.125 (≈ 0.0536 µM) | 0.0625 (≈ 0.0268 µM) | 0.125 (≈ 0.0536 µM) | 0.0625 (≈ 0.0268 µM) | 0.03125 (≈ 0.0134 µM) | 0.25 (≈ 0.107 µM) | 0.0625 (≈ 0.0268 µM) | <1
2 | CC(=O)N[C@H](C(=O)N[C@H]1CCNC(=O)[C@@H]([C@H](C)O)NC(=O)[C@H](C(C)(C)C)NC(=O)[C@H](CO)NC(=O)[C@H](Cc2c[nH]c3ccccc23)NC(=O)[C@H](CCO)NC(=O)[C@@H](CCN)NC(=O)[C@H](CCC(=O)N[C@@H](CCN)C(=O)N[C@H](C(=O)N[C@@H](CN)C(=O)N[C@H]2CCNC(=O)[C@H]([C@@H](C)O)NC(=O)[C@H](CCN)NC(=O)[C@H](CCN)NC(=O)[C@H](CC(C)C)NC(=O)[C@@H](CC(C)C)NC(=O)[C@H](CCN)NC2=O)[C@@H](C)O)NC(=O)[C@H](CN)NC(=O)[C@H](Cc2ccc(O)cc2)NC1=O)C(C)C [Ex. 35] (I: Ac-V[Dab]Y[Dap]E[dDab][hSer]WS[Tle][dT] / II: [Dab]T[Dap][Dab][Dab][dL]L[Dab][Dab]T; lactam I:2-I:C, II:4-II:C; amide I:5-II:N) | 0.25 (≈ 0.108 µM) | 0.25 (≈ 0.108 µM) | 1 (≈ 0.434 µM) | 0.25 (≈ 0.108 µM) | 0.125 (≈ 0.0542 µM) | 0.125 (≈ 0.0542 µM) | 0.25 (≈ 0.108 µM) | 0.25 (≈ 0.108 µM) | <1
3 | CC(=O)N[C@@H](Cc1ccccc1)C(=O)N[C@H]1CCCNC(=O)[C@@H]([C@H](C)O)NC(=O)[C@H](C(C)(C)C)NC(=O)[C@H](CO)NC(=O)[C@H](Cc2c[nH]c3ccccc23)NC(=O)[C@H](CCO)NC(=O)[C@@H](CCN)NC(=O)[C@H](CCC(=O)N[C@@H](CCN)C(=O)N[C@H](C(=O)N[C@@H](CN)C(=O)N[C@H]2CCNC(=O)[C@H]([C@@H](C)O)NC(=O)[C@H](CCN)NC(=O)[C@H](CCN)NC(=O)[C@H](CC(C)C)NC(=O)[C@@H](CC(C)C)NC(=O)[C@H](CCN)NC2=O)[C@@H](C)O)NC(=O)[C@H](CN)NC(=O)[C@H](Cc2ccc(O)cc2)NC1=O [Ex. 36] (I: Ac-F[Orn]Y[Dap]E[dDab][hSer]WS[Tle][dT] / II: [Dab]T[Dap][Dab][Dab][dL]L[Dab][Dab]T; lactam I:2-I:C, II:4-II:C; amide I:5-II:N) | 0.25 (≈ 0.106 µM) | 0.125 (≈ 0.0528 µM) | 0.125 (≈ 0.0528 µM) | 0.125 (≈ 0.0528 µM) | 0.0625 (≈ 0.0264 µM) | 0.0625 (≈ 0.0264 µM) | 0.25 (≈ 0.106 µM) | 0.0625 (≈ 0.0264 µM) | <1
4 | CC(=O)N[C@H](C(=O)N[C@H]1CCCNC(=O)[C@@H]([C@H](C)O)NC(=O)[C@H](C(C)C)NC(=O)[C@H](CO)NC(=O)[C@H](Cc2c[nH]c3ccccc23)NC(=O)[C@H](CCN)NC(=O)[C@@H](CCN)NC(=O)[C@H](CCC(=O)N[C@@H](CCN)C(=O)N[C@H](C(=O)N[C@@H](CN)C(=O)N[C@H]2CCNC(=O)[C@H]([C@@H](C)O)NC(=O)[C@H](CCN)NC(=O)[C@H](CCN)NC(=O)[C@H](CC(C)C)NC(=O)[C@@H](CC(C)C)NC(=O)[C@H](CCN)NC2=O)[C@@H](C)O)NC(=O)[C@H](CN)NC(=O)[C@H](Cc2ccc(O)cc2)NC1=O)C(C)C [Ex. 37] (I: Ac-V[Orn]Y[Dap]E[dDab][Dab]WSV[dT] / II: [Dab]T[Dap][Dab][Dab][dL]L[Dab][Dab]T; lactam I:2-I:C, II:4-II:C; amide I:5-II:N) | 2 (≈ 0.868 µM) | 0.25 (≈ 0.108 µM) | 0.5 (≈ 0.217 µM) | 0.25 (≈ 0.108 µM) | 0.25 (≈ 0.108 µM) | 0.125 (≈ 0.0542 µM) | 0.5 (≈ 0.217 µM) | 1 (≈ 0.434 µM) | 1
5 | CC(C)CCCCC(=O)N[C@H](C(=O)N[C@H]1CSSC[C@@H](C(=O)N[C@@H](CO)C(N)=O)NC(=O)[C@H](C(C)C)NC(=O)[C@H](CCO)NC(=O)[C@H](Cc2c[nH]c3ccccc23)NC(=O)[C@H](CCO)NC(=O)[C@@H](CCN)NC(=O)[C@H](CCC(=O)N[C@@H](CCN)C(=O)N[C@H](C(=O)N[C@@H](CCN)C(=O)N[C@H]2CCNC(=O)[C@H]([C@@H](C)O)NC(=O)[C@H](CCN)NC(=O)[C@H](CCN)NC(=O)[C@H](CC(C)C)NC(=O)[C@@H](CC(C)C)NC(=O)[C@H](CCN)NC2=O)[C@@H](C)O)NC(=O)[C@H](CCN)NC(=O)[C@H](Cc2ccc(O)cc2)NC1=O)C(C)C [Ex. 40] (I: {Heptanoyl(6-Me)}-VCY[Dab]E[dDab][hSer]W[hSer]VCS-NH2 / II: [Dab]T[Dab][Dab][Dab][dL]L[Dab][Dab]T; disulfide I:2-I:11; amide I:5-II:N; lactam II:4-II:C) | 0.25 (≈ 0.099 µM) | 0.5 (≈ 0.198 µM) | 1 (≈ 0.396 µM) | 0.5 (≈ 0.198 µM) | 0.125 (≈ 0.0495 µM) | 1 (≈ 0.396 µM) | 0.25 (≈ 0.099 µM) | 0.5 (≈ 0.198 µM) | 2
6 | CC(=O)N[C@H](C(=O)N[C@H]1CSSC[C@@H](C(=O)N[C@@H](CO)C(N)=O)NC(=O)[C@H](C(C)(C)C)NC(=O)[C@H](CO)NC(=O)[C@H](Cc2c[nH]c3ccccc23)NC(=O)[C@H]([C@@H](C)O)NC(=O)[C@@H](CCN)NC(=O)[C@H](CCC(=O)N[C@@H](CCN)C(=O)N[C@H](C(=O)N[C@@H](CCN)C(=O)N[C@H]2CCNC(=O)[C@H]([C@@H](C)O)NC(=O)[C@H](CCN)NC(=O)[C@H](CCN)NC(=O)[C@H](CC(C)C)NC(=O)[C@@H](CC(C)C)NC(=O)[C@H](CCN)NC2=O)[C@@H](C)O)NC(=O)[C@H](CCN)NC(=O)[C@H](Cc2ccc(O)cc2)NC1=O)C(C)C [Ex. 44] (I: Ac-VCY[Dab]E[dDab]TWS[Tle]CS-NH2 / II: [Dab]T[Dab][Dab][Dab][dL]L[Dab][Dab]T; disulfide I:2-I:11; amide I:5-II:N; lactam II:4-II:C) | 0.25 (≈ 0.102 µM) | 0.125 (≈ 0.0512 µM) | 0.125 (≈ 0.0512 µM) | 0.125 (≈ 0.0512 µM) | 0.0625 (≈ 0.0256 µM) | 0.125 (≈ 0.0512 µM) | 0.125 (≈ 0.0512 µM) | 0.125 (≈ 0.0512 µM) | <1
7 | CC(=O)N[C@H](C(=O)N[C@H]1CSSC[C@@H](C(=O)N[C@@H](CO)C(N)=O)NC(=O)[C@H](C(C)C)NC(=O)[C@H](CO)NC(=O)[C@H](Cc2c[nH]c3ccccc23)NC(=O)[C@H]([C@@H](C)O)NC(=O)[C@@H](CCN)NC(=O)[C@H](CCC(=O)N[C@@H](CCN)C(=O)N[C@H](C(=O)N[C@@H](CCN)C(=O)N[C@H]2CCNC(=O)[C@H]([C@@H](C)O)NC(=O)[C@H](CCN)NC(=O)[C@H](CCN)NC(=O)[C@H](CC(C)C)NC(=O)[C@@H](CC(C)C)NC(=O)[C@H](CCN)NC2=O)[C@@H](C)O)NC(=O)[C@H](CCN)NC(=O)[C@H](Cc2ccc(O)cc2)NC1=O)C(C)C [Ex. 45] (I: Ac-VCY[Dab]E[dDab]TWSVCS-NH2 / II: [Dab]T[Dab][Dab][Dab][dL]L[Dab][Dab]T; disulfide I:2-I:11; amide I:5-II:N; lactam II:4-II:C) | 0.5 (≈ 0.206 µM) | 0.25 (≈ 0.103 µM) | 0.5 (≈ 0.206 µM) | 0.125 (≈ 0.0515 µM) | 0.0625 (≈ 0.0258 µM) | 0.0625 (≈ 0.0258 µM) | 0.125 (≈ 0.0515 µM) | 0.25 (≈ 0.103 µM) | <1
8 | CC(=O)N[C@H](C(=O)N[C@H]1CSSC[C@@H](C(=O)N[C@@H](CO)C(N)=O)NC(=O)[C@H](C(C)(C)C)NC(=O)[C@H](CO)NC(=O)[C@H](Cc2c[nH]c3ccccc23)NC(=O)[C@H]([C@@H](C)O)NC(=O)[C@@H](CCN)NC(=O)[C@H](CCC(=O)N[C@@H](CCN)C(=O)N[C@H](C(=O)N[C@@H](CCN)C(=O)N[C@H]2CCNC(=O)[C@H]([C@@H](C)O)NC(=O)[C@H](CCN)NC(=O)[C@H](CCN)NC(=O)[C@H](CC(C)C)NC(=O)[C@@H](CC(C)C)NC(=O)[C@H](CCN)NC2=O)[C@@H](C)O)NC(=O)[C@H](CO)NC(=O)[C@H](Cc2ccc(O)cc2)NC1=O)C(C)C [Ex. 46] (I: Ac-VCYSE[dDab]TWS[Tle]CS-NH2 / II: [Dab]T[Dab][Dab][Dab][dL]L[Dab][Dab]T; disulfide I:2-I:11; amide I:5-II:N; lactam II:4-II:C) | 0.5 (≈ 0.206 µM) | 0.125 (≈ 0.0515 µM) | 0.125 (≈ 0.0515 µM) | 0.125 (≈ 0.0515 µM) | 0.0625 (≈ 0.0257 µM) | 0.0625 (≈ 0.0257 µM) | 0.125 (≈ 0.0515 µM) | 0.125 (≈ 0.0515 µM) | 2

— patent publication US11629171B2, “Beta-hairpin peptidomimetics” (POLYPHOR AG, priority 2017, dated 2023)
